From patent US11407741B2, “Compounds and their use as selective inhibitors of caspase-2” (priority 2017, dated 2022)
Where a SMILES comes first, the peptide text is derived from it. [ ]: non-standard residue; d: D form. The star is where a group is joined. Pro(3S-CH2tBu) = CC(C)(C)C[C@H]1CCN[C@@H]1C(=O)O; Quinaldoyl = O=C(c1ccc2ccccc2n1)*; X1 = c1ncc(CO*)s1

Legend:
[1] = tested on: HeLa cells; assay: Protection against vincristine-induced cell death, propidium iodide flow cytometry; format: cell-based, human; parameters: Index of cell death: key to the marks not given beside the values
Experimental: Human HeLa cells are used in this model. HeLa cells (cervical cancer cell line) were obtained from American Type Cell Collection (ATCC), and were cultured in Dulbecco's Modified Eagle Medium (DMEM, High Glucose, GlutaMAX™, Pyruvate) (Gibco, Life technologies), supplemented with 10% FCS and antibiotics (Gibco, Life technologies).
Human HeLa cells are treated with a solution of Vincristine (Sigma Aldrich) (diluted in water at 5 mM). Vincristine works partly by binding to the Tubulin protein, stopping the cell from separating its chromosomes during the metaphase; the cell then undergoes apoptosis through a caspase-dependent process.
Propidium iodide (PI) (Sigma Aldrich) is used to evaluate plasma membrane permeabilisation, a sign of cell death.
24 hours before pharmacological treatment, HeLa cells were plated into 24-well plates. […] Cells were exposed or not (control), to 20 nM Vincristine for 48 hours.
The content of each well is collected is added to PBS and then centrifuged (900 rpm; 5 min).
The pellet obtained is put into 300 μL of a medium comprising propidium iodide and incubated (37° C., 5% CO2) in the dark for 5 minutes and then subjected to flow cytometry analysis.
Fluorescence-Activated Cell Sorting was performed using a FACSCalibur cytometer (Becton Dickinson, San Jose, Calif.). For each sample, data from 5,000 Cells were registered and analyzed with the CellQuest Pro software (Becton Dickinson). Analysis included FSC (Forward Scatter/relating to the cells'size) and SSC (Side Scatter/relating to the cells' granularity) parameters together with FL-1 and FL-3 channel.
The percentage of propidium iodide positive cells gives an estimation of cell death.

[2] = target: T1, Caspase-3 (Homo sapiens, UniProt P42574); assay: Caspase-3 inhibition assay for irreversible inhibitors (kinact/KI, continuous method); format: biochemical; conditions: human recombinant Caspase-3 0.5 nM, 37° C.
T1 construct: the Caspase-2 and Caspase-3 are human recombinant active enzymes; purchased R&D Systems 707-C3-010/CF
T1 sequence (P42574 29-175 limits assumed): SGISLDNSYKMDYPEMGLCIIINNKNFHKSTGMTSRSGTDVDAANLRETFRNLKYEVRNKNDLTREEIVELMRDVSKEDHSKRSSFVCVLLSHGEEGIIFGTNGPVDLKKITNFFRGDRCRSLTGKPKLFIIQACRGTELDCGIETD
T1 sequence (P42574 176-277 limits assumed): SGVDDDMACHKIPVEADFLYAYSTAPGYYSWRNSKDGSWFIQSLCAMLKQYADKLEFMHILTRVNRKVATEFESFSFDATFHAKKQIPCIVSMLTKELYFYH
Experimental: The efficiency of the comparative compound Δ2Me-TRP601, that is an already known group II Caspase inhibitor (inhibitor of Caspase-2, Caspase-3 and Caspase-7), has been assessed by a similar protocol described in Chauvier et al., 2011 Cell Death Dis 2011, 2:e203.
In this example, the Caspase-2 and Caspase-3 are human recombinant active enzymes that are respectively provided by Enzo Life® (ALX-201-057-U100) and R&D Systems® (707-C3-010/CF).
Caspase-2 is used at a final concentration of 0.1 nM in a “Caspase-2 buffer” containing 20 mM HEPES (pH 7.4), 5 mM DTT, 2 mM EDTA, 0.1% CHAPS and 800 mM succinate. […]
The peptide substrates used for the enzymatic activity measurements are Ac-DEVD-AMC and Ac-VDVAD-AMC commercialized by EnzoLife® (respectively referenced ALX-260-031-M005 and ALX-260-060-M005). […] The releasing of AMC enables to follow the enzymatic activity in fluorescence unit RFU over time in a 96-wells microplate.
The fluorescence values are measured at 37° C. with a spectrofluorometer with a microplate reader BMG FLUOstar OPTIMA. […]
The inhibitory properties of the tested compounds are evaluated by the determination of the kinact/KI ratio regarding either Caspase-2 or Caspase-3 wherein: • kinact is the maximal inactivation rate constant, and • KI is the dissociation constant according to: […]
The activities of the enzyme are measured between 45 and 60 minutes. […]

| SMILES | Index of cell death ([1]; 20 nM Vincristine for 48 hours, propidium iodide positive cells) | Protection against apoptotic death induced by vincristine ([1]; compound added 1 hour before vincristine) | k3/KI Casp3 [2] |
| --- | --- | --- | --- |
| CC(C)[C@H](NC(=O)c1ccc2ccccc2n1)C(=O)N[C@@H](CC(=O)O)C(=O)N[C@H](C(=O)N1CC[C@H](CC(C)(C)C)[C@H]1C(=O)N[C@@H](CC(=O)O)C(=O)OCc1cncs1)C(C)C [Compound 3, (S)-4-(((S)-1-((2S,3S)-2-(((S)-3-carboxy-1-oxo-1-(thiazol-5 - ylmethoxy)propan-2-yl)carbamoyl)-3-neopenthylpyrrolidin-1-yl)-3-methyl-1-oxobutan-2-yl)amino)-3-((S)-3-methyl-2-(quinoline-2-carboxamido)butanamido)-4-oxobutanoic acid] (Quinaldoyl-VDV[Pro(3S-CH2tBu)]D-X1) | ++ | protect the cells against apoptotic death induced by vincristine in a dose-dependent manner | – |
| CC(C)[C@H](NC(=O)c1ccc2ccccc2n1)C(=O)N[C@@H](CC(=O)O)C(=O)N[C@H](C(=O)N1CC[C@H](CC(C)(C)C)[C@H]1C(=O)N[C@@H](CC(=O)O)C(=O)COc1c(F)cccc1F)C(C)C (single isomer, unassigned) [Compound 2 enantiomer a] | – | – | 2 625 M^−1 · s^−1 |
